From US11053251B2, “GPR35 modulators” (Prometheus Biosciences, Inc., priority 2019, dated 2021) come the findings set out here.

Structures are written as SMILES.

Sequence of Human GPR35 (Q9HC97 whole entry S294R): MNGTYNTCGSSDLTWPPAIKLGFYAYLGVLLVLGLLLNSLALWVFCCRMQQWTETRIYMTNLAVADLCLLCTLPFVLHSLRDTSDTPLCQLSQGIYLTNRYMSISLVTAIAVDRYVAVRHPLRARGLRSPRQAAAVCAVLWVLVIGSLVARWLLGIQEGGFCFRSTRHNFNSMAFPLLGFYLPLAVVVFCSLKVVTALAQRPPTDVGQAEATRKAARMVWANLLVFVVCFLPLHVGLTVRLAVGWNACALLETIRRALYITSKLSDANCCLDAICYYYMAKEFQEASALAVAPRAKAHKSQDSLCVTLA

The target of the first assay is Human GPR35 (Homo sapiens, UniProt Q9HC97, S294R). The experiment in a line: Alternative Beta-Arrestin Assay (JumpIn 294R Tango U2OS cells, LiveBLAzer-FRET B/G). The assay is classed as cell-based. Conditions: Human GPR35 expressing JumpIn 294R Tango U2OS cells, 5 hours treatment. In a few lines:
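U2OS Tango cells expressing human GPR35 S294R, plated overnight, exposed to serially diluted compounds for 5 hours. β-lactamase reporter read with LiveBLAzer-FRET B/G (CCF4-AM) after 2 h; EC50 from four-parameter fit, zaprinast as positive control.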
One may read the EC50 as the concentration that produces a half-maximal response. Lower therefore signals higher potency in that assay. Consider `CCOc1cc(-c2cccc(NC(C)(C)C(=O)O)c2)ccc1-c1nc2[nH]nnc2c(=O)[nH]1` [Compound 224, 2-((3′-Ethoxy-4′-(7-oxo-6,7-dihydro-3H-[1,2,3]triazolo[4,5-d]pyrimidin-5-yl)-[1,1′-biphenyl]-3-yl)amino)-2-methylpropanoic acid], for which the EC50 was at most 10 µM.
Still for that read-out and setting: with `CCOc1cc(-c2cccc(OC(C)C(=O)O)c2)ccc1-c1nc2[nH]nnc2c(=O)[nH]1` (racemic) [Compound 212, (±)-2-((3′-Ethoxy-4′-(7-oxo-6,7-dihydro-3H-[1,2,3]triazolo[4,5-d]pyrimidin-5-yl)-[1,1′-biphenyl]-3-yl)oxy)propanoic acid] the figure was at most 10 µM.
The same measure, in the same setting: then `CCOc1cc(-c2cc(C)cc(O[C@@H](C)C(=O)O)c2)ccc1-c1nc2[nH]nnc2c(=O)[nH]1` [Compound 267, (S)-2-((3′-ethoxy-5-methyl-4′-(7-oxo-6,7-dihydro-3H-[1,2,3]triazolo[4,5-d]pyrimidin-5-yl)-[1,1′-biphenyl]-3-yl)oxy)propanoic acid], with at most 10 µM.
For `CCOc1cc(-c2cccc(/C=C/C(=O)O)c2)ccc1-c1nc2[nH]nnc2c(=O)[nH]1` [Compound 235, (E)-3-(3′-ethoxy-4′-(7-oxo-6,7-dihydro-3H-[1,2,3]triazolo[4,5-d]pyrimidin-5-yl)-[1,1′-biphenyl]-3-yl)acrylic acid], the 50% effective concentration (EC50) was at most 10 µM.
In turn, `CCOc1cc(-c2ccc(C(=O)OCc3oc(=O)oc3C)cc2)ccc1-c1nc2nn[nH]c2c(=O)[nH]1` [Compound 193, (5-Methyl-2-oxo-1,3-dioxol-4-yl)methyl 3′-ethoxy-4′-(7-oxo-6,7-dihydro-3H-[1,2,3]triazolo[4,5-d]pyrimidin-5-yl)-[1,1′-biphenyl]-4-carboxylate] returned an EC50 of at most 10 µM.
On the same count and under the same terms, then `CCOc1cc(-c2cccc(C[C@H](NC(C)=O)C(=O)O)c2)ccc1-c1nc2[nH]nnc2c(=O)[nH]1` [Compound 293, (S)-2-acetamido-3-(3′-ethoxy-4′-(7-oxo-6,7-dihydro-3H-[1,2,3]triazolo[4,5-d]pyrimidin-5-yl)-[1,1′-biphenyl]-3-yl)propanoic acid], with at most 10 µM; and `CCOc1cc(-c2ccc(C)c(CCC(=O)O)c2)ccc1-c1nc2[nH]nnc2c(=O)[nH]1` [Compound 321, 3-(3′-ethoxy-4-methyl-4′-(7-oxo-6,7-dihydro-3H-[1,2,3]triazolo[4,5-d]pyrimidin-5-yl)-[1,1′-biphenyl]-3-yl)propanoic acid], with at most 10 µM.
With `Nc1cc(-c2nc3[nH]nnc3c(=O)[nH]2)ccc1-c1ccc(C(=O)O)cc1` [Compound 287, 2′-amino-4′-(7-oxo-6,7-dihydro-3H-[1,2,3]triazolo[4,5-d]pyrimidin-5-yl)-[1,1′-biphenyl]-4-carboxylic acid], the EC50 is at most 10 µM.
Consider `CCOc1cc(-c2cc(F)cc(O[C@H](C)C(=O)O)c2)ccc1-c1nc2[nH]nnc2c(=O)[nH]1` (single isomer, unassigned) [Compound 262], for which the EC50 is at most 10 µM.
The same measure, in the same setting: with `CCOc1cc(-c2cccc([C@@H]3C[C@@H]3C(=O)O)c2)ccc1-c1nc2[nH]nnc2c(=O)[nH]1` (racemic) [Compound 306, rac-cis-2-(3′-ethoxy-4′-(7-oxo-6,7-dihydro-3H-[1,2,3]triazolo[4,5-d]pyrimidin-5-yl)-[1,1′-biphenyl]-3-yl)cyclopropane-1-carboxylic acid] the figure was at most 10 µM.
The same measure, in the same setting: then `O=c1[nH]c(-c2ccc(-c3ccc(-c4nnn[nH]4)cc3)cc2OC2CCCC2)nc2[nH]nnc12` [Compound 273, 5-(3-(cyclopentyloxy)-4′-(1H-tetrazol-5-yl)-[1,1′-biphenyl]-4-yl)-3,6-dihydro-7H-[1,2,3]triazolo[4,5-d]pyrimidin-7-one], with at most 10 µM.

Staying with this assay, now noted: at 50 μM; Table 2.
Turning to `CCOc1cc(-c2ccc(OCc3ccc(OC)cc3)c(NCC(=O)OC(C)(C)C)c2)ccc1-c1nc2[nH]nnc2c(=O)[nH]1` [Compound 221, tert-butyl (3′-ethoxy-4-((4-methoxybenzyl)oxy)-4′-(7-oxo-6,7-dihydro-3H-[1,2,3]triazolo[4,5-d]pyrimidin-5-yl)-[1,1′-biphenyl]-3-yl)glycinate], the “% inhibition at 50 μM” value came to 57% inhibition at.
